Data: ChEMBL document CHEMBL3044906, “Synthesis and blood glucose lowering activity of some novel benzenesulfonylthiourea derivatives substituted with 6-aryl-4,5-dihyropyridazin-3(2H)-ones” (2012)
Activity calls are given as the source filed them. The rule behind the calls is not given here.

Columns and labels:
[1] = test system: Rattus norvegicus; assay: Antihyperglycemic activity in Rattus norvegicus Wistar albino (rat) assessed as reduction in blood glucose level at 20 mg/kg, po administered 30 min before 3 g/kg, po glucose challenge by oral glucose tolerance test; assay type: functional
[2] = test system: Rattus norvegicus; assay: Antihyperglycemic activity in Rattus norvegicus Wistar albino (rat) assessed as blood glucose level at 20 mg/kg, po administered 30 min before 3 g/kg, po glucose challenge by oral glucose tolerance test (reference value: 149 +/- 6.3 mg/dl); assay type: functional

Structure (SMILES): CCc1ccc(C2=NN(c3ccc(S(=O)(=O)NC(=S)NCc4ccccc4)cc3)C(=O)CC2)cc1
- inhibition in vivo at 20 mg/kg [1]: 3.8%
- Activity [2]: 148 mg/dL

Structure (SMILES): CCCNC(=S)NS(=O)(=O)c1ccc(N2N=C(c3ccc(Oc4ccccc4)cc3)CCC2=O)cc1
- inhibition [1]: inactive
- Activity [2]: 152 mg/dL

Structure (SMILES): CCCNC(=S)NS(=O)(=O)c1ccc(N2N=C(c3ccc(OC)cc3)CCC2=O)cc1
- inhibition in vivo at 20 mg/kg [1]: 37.1%
- Activity [2]: 132 mg/dL

Structure (SMILES): O=C1CCC(c2ccccc2)=NN1c1ccc(S(=O)(=O)NC(=S)NCc2ccccc2)cc1
- inhibition in vivo at 20 mg/kg [1]: 26.6%
- Activity [2]: 139 mg/dL

Structure (SMILES): CCCNC(=S)NS(=O)(=O)c1ccc(N2N=C(c3ccc(Cl)cc3)CCC2=O)cc1
- inhibition in vivo at 20 mg/kg [1]: 32.7%
- Activity [2]: 132.5 mg/dL

Structure (SMILES): O=C1CCC(c2ccc(Cl)cc2)=NN1c1ccc(S(=O)(=O)NC(=S)NCc2ccccc2)cc1
- inhibition in vivo at 20 mg/kg [1]: 38.8%
- Activity [2]: 128.5 mg/dL

Structure (SMILES): Cc1ccc(C2=NN(c3ccc(S(=O)(=O)NC(=S)NCc4ccccc4)cc3)C(=O)CC2)cc1
- inhibition in vivo at 20 mg/kg [1]: 21.3%
- Activity [2]: 136 mg/dL

Structure (SMILES): COc1ccc(C2=NN(c3ccc(S(=O)(=O)NC(=S)NCc4ccccc4)cc3)C(=O)CC2)cc1
- inhibition in vivo at 20 mg/kg [1]: 5.6%
- Activity [2]: 152 mg/dL

Structure (SMILES): CCCNC(=S)NS(=O)(=O)c1ccc(N2N=C(c3ccccc3)CCC2=O)cc1
- inhibition [1]: inactive
- Activity [2]: 160 mg/dL

Structure (SMILES): O=C1CCC(c2ccc(-c3ccccc3)cc2)=NN1c1ccc(S(=O)(=O)NC(=S)Nc2ccccc2)cc1
- inhibition [1]: inactive
- Activity [2]: 166 mg/dL

Structure (SMILES): COc1ccc(C2=NN(c3ccc(S(=O)(=O)NC(=S)Nc4ccccc4)cc3)C(=O)CC2)cc1
- inhibition [1]: inactive
- Activity [2]: 170.5 mg/dL

Structure (SMILES): COc1ccc(Cl)cc1C(=O)NCCc1ccc(S(=O)(=O)NC(=O)NC2CCCCC2)cc1 [GLYBURIDE]
- Activity [2]: 94.3 mg/dL

Structure (SMILES): O=C1CCC(c2ccc(-c3ccccc3)cc2)=NN1c1ccc(S(=O)(=O)NC(=S)NCc2ccccc2)cc1
- inhibition in vivo at 20 mg/kg [1]: 24.8%
- Activity [2]: 137.5 mg/dL

Structure (SMILES): CCCNC(=S)NS(=O)(=O)c1ccc(N2N=C(c3ccc(C)cc3)CCC2=O)cc1
- inhibition in vivo at 20 mg/kg [1]: 30.9%
- Activity [2]: 134.5 mg/dL

Structure (SMILES): O=C1CCC(c2ccc(Cl)cc2)=NN1c1ccc(S(=O)(=O)NC(=S)Nc2ccccc2)cc1
- inhibition in vivo at 20 mg/kg [1]: 4.7%
- Activity [2]: 148 mg/dL

Structure (SMILES): O=C1CCC(c2ccc(Oc3ccccc3)cc2)=NN1c1ccc(S(=O)(=O)NC(=S)NCc2ccccc2)cc1
- inhibition in vivo at 20 mg/kg [1]: 3%
- Activity [2]: 147.5 mg/dL
